From ChEMBL document CHEMBL4616697, “Discovery of Adamantane Carboxamides as Ebola Virus Cell Entry and Glycoprotein Inhibitors” (ACS Med Chem Lett, 2020)

Assays:
[1] = Inhibition of glycoprotein in VSV pseudotyped Ebolavirus infected in African green monkey Vero cells assessed as reduction in virus entry incubated for 24 hrs by luciferase reporter gene assay; assay type: cell-based
[2] = Kinetic aqueous solubility of compound in PBS at pH 6.4 to 7.5 measured after 2 hrs by spectrophotometry analysis; assay type: physicochemical; conditions: read-out: Kinetic_solubility
[3] = Metabolic stability in human liver microsomes assessed as parent compound remaining at 1 uM pretreated for 30 mins followed by NADPH addition and measured after 60 mins by LC-MS/MS analysis; assay type: ADME, Microsome; conditions: for remaining at 1 h, 1 µM: liver microsomes, read-out: Stability
[4] = Aqueous solubility of compound in PBS at pH 7.4 measured after 2 hrs by spectrophotometry analysis; assay type: physicochemical
[5] = Cytotoxicity against African green monkey Vero E6 cells assessed as reduction in cell viability incubated for 10 days by neutral red dye based spectrophotometry analysis; parameters: species or system Vero C1008; conditions: chlorocebus sabaeus
[6] = Metabolic stability in mouse liver microsomes assessed as parent compound remaining at 1 uM pretreated for 30 mins followed by NADPH addition and measured after 60 mins by LC-MS/MS analysis; assay type: ADME, Microsome; conditions: read-out: Stability
[7] = Selectivity index, ratio of CC50 for African green monkey Vero E6 cells assessed as reduction in cell viability incubated for 10 days by neutral red dye based spectrophotometry analysis to EC90 for wild type Ebolavirus infected in African green monkey Vero E6 cells assessed as reduction in viral replication by virus yield reduction assay; assay type: toxicity, Vero C1008; conditions: read-out: Selectivity Index
[8] = Metabolic stability in Cynomolgus monkey liver microsomes assessed as parent compound remaining at 1 uM pretreated for 30 mins followed by NADPH addition and measured after 60 mins by LC-MS/MS analysis; assay type: ADME, Macaca fascicularis, Microsome; conditions: read-out: Stability
[9] = tested on: Ebolavirus; assay: Antiviral activity against wild type Ebolavirus infected in African green monkey Vero E6 cells assessed as inhibition of viral entry compound treated with primary viral infected cells for 60 mins and after 3 days post-infection measured following 10 days of compound incubation with fresh cells infected with primary culture supernatants by virus yield reduction assay; assay type: functional; conditions: Orthoebolavirus, Vero C1008

Structure (SMILES) | EC50 ([1]; Orthoebolavirus, Vero, 24 h) [nM] | solubility kinetic at 2 h [2] [µM] | other results
O=C(NC1CCNCC1)NC12CC3CC(C1)CC(c1ccccc1)(C3)C2 | > 1000 | > 100 | –
NC1CCN(C(=O)C23CC4CC(C2)CC(c2ccccc2)(C4)C3)CC1 | 120 | > 100 | –
O=C(NC1CCNCC1)C12CC3CC(C1)CC(c1ccc(F)cc1)(C3)C2 | 310 | > 100 | –
C[C@]12C[C@@H]3C[C@](C(=O)NC4CCNCC4)(C1)C[C@@](c1ccccc1)(C3)C2 | – | – | Stability ([3]; microsomes, 1 h, 1 µM): 81%; solubility at 2 h [4]: > 20 mg/mL; EC50 ([1]; vero): 28 nM; CC50 at 240 h [5]: 71000 nM; remaining at 1 h, 1 µM [6]: 86%; selectivity ratio at 240 h [7]: 34; remaining at 1 h, 1 µM [8]: 83%; EC90 [9]: 2100 nM
O=C(N1CCc2ccccc2C1)C12CC3CC(C1)CC(c1ccccc1)(C3)C2 | 2300 | > 100 | –
O=C(NC1CCNCC1)C12CC3CC1CC(c1ccccc1)(C3)C2 (stereo not given) | 330 | > 100 | –
CC12CC3CC(C(=O)N[C@@H]4CCNC[C@H]4F)(C1)CC(c1ccccc1)(C3)C2 (mixture of isomers) | 33 | > 100 | remaining at 1 h, 1 µM [3]: 60%
CC12CC3CC(C(=O)NCCN)(C1)CC(c1ccccc1)(C3)C2 (racemic) | 250 | > 100 | –
O=C(NC12CC3CC(C1)CC(c1ccccc1)(C3)C2)C1CCNCC1 | > 1000 | > 100 | –
CC12CC3CC(C(=O)N[C@H]4CC[C@H](N)CC4)(C1)CC(c1ccccc1)(C3)C2 (stereo in doubt; 39) | – | – | EC50 ([1]; vero): 140 nM
CC12CC3CC(C(=O)N[C@H]4CC[C@H](CN)CC4)(C1)CC(c1ccccc1)(C3)C2 (stereo in doubt; 41) | – | – | EC50 ([1]; vero): 74 nM
CC12CC3CC(C(=O)N[C@H]4CC[C@@H](N)CC4)(C1)CC(c1ccccc1)(C3)C2 (mixture of isomers) | 110 | > 100 | remaining at 1 h, 1 µM [3]: 87%
CC12CC3CC(C(=O)NC4CCNCC4)(C1)CC(c1ccccc1)(C3)C2 (racemic) | – | > 100 | remaining at 1 h, 1 µM [3]: 75%; EC50 ([1]; vero): 43 nM
O=C(NC1CCNCC1)C12CC3CC(C1)CC(c1ccc([N+](=O)[O-])cc1)(C3)C2 | > 3000 | > 100 | –
O=C(NC1CCNCC1)C12CC3CC(C1)CC(c1ccc(O)cc1)(C3)C2 | 1700 | > 100 | –
c1ccc(C23CC4CC(CC(CNC5CCNCC5)(C4)C2)C3)cc1 | 470 | > 100 | –
CCC12CC3CC(C(=O)NC4CCNCC4)(C1)CC(c1ccccc1)(C3)C2 (racemic) | 20 | > 100 | remaining at 1 h, 1 µM [3]: 69%
COc1ccc(C23CC4CC(CC(C(=O)NC5CCNCC5)(C4)C2)C3)cc1 | 380 | > 100 | –
CN1CCC(N(C)C(=O)C23CC4CC(C2)CC(c2ccccc2)(C4)C3)CC1 | 280 | > 100 | –
CC12CC3CC(C(=O)N4CCNCC4)(C1)CC(c1ccccc1)(C3)C2 (racemic) | 130 | > 100 | remaining at 1 h, 1 µM [3]: 100%
C[C@@]12C[C@H]3C[C@@](C(=O)NC4CCNCC4)(C1)C[C@](c1ccccc1)(C3)C2 | – | – | EC50 ([1]; vero): 240 nM
